# Experiments:
# 3T3-L1 adipocytes = assay: Screening of methylated xylose derivatives, dGlc uptake assay (Table 1); assay type: cell-based; conditions: Mean±SEM (n=3-6); for HEXOSE UPTAKE (Percent of Control) Without Insulin: 3T3-L1 adipocytes 24 hr at 20 mM glucose, test compounds 0.1-20.0 mM, 2-45 hr; for HEXOSE UPTAKE (Percent of Control) With Insulin: as E1, 500 nM insulin 30 min prior to uptake assay
# Excerpt: There are five carbon atoms in xylose available for chemical modifications. Each of these atoms was methylated by modifications of published chemical procedures [Bollenback, G. N. (1963) In Methods in carbohydrate chemistry, vol. 2 (Whistler, R. L. and Wolfrom, M. L., eds.), pp. 326-331, Academic Press, New York; Bowering, W. and Timel, T. (1958) Can. J. Chem. 36, 283-285; Levine, P. and Raymomd, A. (1933) J. Biol. Chem. 102, 331-344; Takeo, K. (1992) Carbohyd. Res. 224, 311-318]. All compounds were purified by HPLC and their structure verified by NMR spectroscopy. […] At the end of the incubation period the cells were taken for a standard [^3H]-2-deoxy-D-glucose uptake assay in the absence or the presence of 500 nM insulin (30 min exposure prior to the uptake assay).
# 3T3-L1 adipocytes and L6 myotubes were maintained for 24 hr at 20 mM glucose. Test compounds were added (0.1-20.0 mM) and the cells were incubated further for 2-45 hr. At the end of the incubation periods the cells were washed and taken for a standard [^3H]2-deoxy-D-glucose (dGlc) uptake assay. Uptake values (given for control cells) are in nmol dGlc/mg protein/min. Mean±SEM (n=3-6).
# (§1) Uptake assay of the tritiated glucose analogue, 2-deoxy-D-glucose, is routinely performed as described in [Sasson, S. and Cerasi, E. (1986) J. Biol. Chem. 261, 16827-16833].
# [1] = test system: glucose uptake in cultured cells; assay: In vitro glucose uptake / hexose transport in cultured cells with xylose derivatives (Table 2); assay type: cell-based; conditions: for EC50 / ECmax: EC = Effective concentration
# Description: Table 2 summarizes in vitro results obtained with some of these newly synthesized xylose derivatives.
# as §1
# All new compounds are screened and tested first in various insulin-sensitive cell cultures used routinely in the laboratory (skeletal muscle and adipose cell lines). In addition these drugs were tested in non-insulin-sensitive cells such as primary cultures of bovine and porcine vascular endothelial and smooth muscle cells. Active compounds were tested ex-vivo on isolated rat soleus muscles. All cell cultures and tissues were maintained under hyperglycemic condition prior to the addition of the test compounds. Dose-response and time-course experiments determine which of the derivatives are subsequently tested in animal models. For each potent compound the total cell content and plasma membrane abundance of GLUT-1 and GLUT-4 was determined, as described above. The same biotinylation technique was employed to determine the total and plasma membrane content of both transporters in isolated mouse or rat soleus muscles treated with potent compounds.
# C2 myotubes = assay: dGlc uptake assay in C2 myotubes; assay type: cell-based, mouse; conditions: 20 mM pentose, preconditioned with 20 mM glucose (FIG. 7)
# Description: The time-course of D-xylose effect in two types of skeletal muscle cells (L8 myocytes and C2 myotubes) was studied. L8 myocytes and C2 myotubes preconditioned in 20 mM glucose were incubated with 20 mM xylose. After 90 min the cells were washed and incubated with 20 mM glucose, and subjected to a deoxyglucose dGlc uptake assay (14).
# The inventors have also measured the effect of different doses of D-xylose in C2 myotubes. C2 myotubes preconditioned with 20 mM glucose received fresh medium containing 20 mM glucose or increasing concentrations of D-xylose. Standard dGlc uptake assay was performed after 1 hr incubation. […] D-xylose augmented the rate of hexose transport ˜2-fold within 1-2 hr; half-maximal stimulation was observed within 20-30 min, as shown in FIG. 2.
# However, in the above experiments the cells were exposed to D-xylose after removal of the conditioning glucose concentration. […] The inventors therefore added 20 mM D-xylose to C2 myotubes in the presence of 8 or 16 mM glucose and followed its effect.
# It has shown before by the inventors of the present invention that deoxyglucose (dGlc) depresses the hexose transport system in myocytes and that a subsequent incubation with low (even no) glucose fails to reverse this effect of dGlc [Sasson, S et al (1997)]. The inventors have therefore measured the effect of D-xylose on rate of hexose transport following treatment with dGlc. In one experiment, C2 myotubes preconditioned with 2 mM glucose received fresh medium containing 2 mM dGlc. A portion of the cells were washed after 30 min and received 20 MM D-xylose or 2 mM D-glucose, and subjected to a dGlc uptake assay at different time points. In another experiment, L8 myocytes preconditioned with 2 mM glucose were washed and incubated with 2 mM xylose or 2 mM dGlc. A portion of the cells were washed again after 2 hr and incubated with 20 mM xylose, and subjected to a dGlc uptake assay at different time points.
# as §1
# L6 myotubes = assay: dGlc uptake assay in L6 myotubes; assay type: cell-based, rat; conditions: for effect of PI3-kinase inhibitor LY-249002 on the substance's stimulation of hexose transport: 60 μM inhibitor, 23.0 mM glucose (FIG. 11A), EH-40 data not shown
# Description: (§2) FIG. 10: Western blot depicting effect of 3-O-propyl-D-xylose (EH-114), and 1,3-O-dimethylxylopyranoside (EH-101) on the total cell content and plasma membrane abundance of GLUT-4 in the absence or presence of insulin. L6 myotubes were maintained for 48 hr at 23 mM Glucose. The cells were than washed and received fresh medium containing the indicated additions and incubated for additional […]. Insulin was added during the last 30 min of incubation before the dGlc uptake assay.
# FIG. 11A: Effect of LY-249002, a PI3-kinase inhibitor, on insulin, D-xylose, EH-101 and EH-114-mediated glucose uptake. L6 myotubes were treated as described in the legend to FIG. 10. The glucose concentration in the culture medium was 23.0 mM. The concentration of LY-294002 was 60 μM. At the end of incubation the cells were taken for the standard dGlc uptake assay. Mean±SEM, n=3.
# (§3) GLUT-1 and GLUT-4 mediate glucose entry into L6 myotubes. It is established that GLUT-4 is translocated effectively and rapidly to the plasma membrane upon insulin treatment. The inventors looked at the effect of 3-O-propyl-D-xylose EH-114) and 1,3-O-dimethylxylopyranoside (EH-101) on the total cell content and plasma membrane abundance of these transporters in the absence or presence of insulin. L6 myotubes were maintained at 5.0 or 23.0 mM glucose for 48 hr and EH-114 and EH-101 were present during the last 24 hr. The cells were then taken for the standard [^3H]-2-deoxy-D-glucose uptake assay and for the biotinylation procedure for determining the amount of GLUT-1 and GLUT-4 in the plasma membrane. High glucose levels decreased the hexose transport rate by ˜50%. Insulin augmented the transport nearly 2-fold in both cases. EH-114 and EH-101 increased the transport rate 2-3-fold in the absence of insulin. Together with insulin the uptake rate was increased nearly 3-fold.
# The inventors also tested the hypothesis that the active D-xylose derivatives augment the hexose transport capacity in L6 myotubes by translocating GLUT-4 to the plasma membrane not via the common insulin-regulated pathway. For this experiment, a selective inhibitor of the enzyme PI3-kinase, LY-249002, which is a key enzyme in the cellular transduction mechanism of insulin, was utilized. […] These findings also agree well with the longer onset of action of these derivatives as compared to the rapid action of insulin. Similar results were obtained when LY-249002 was present together with the derivatives throughout the entire incubation period.
# as §1
# PKB = PKB phosphorylation immunoblot in L6 myotubes; assay type: cell-based, rat; conditions: 23.0 mM glucose; 100 nM insulin, 20 mM xylose, 5 mM EH-114 or 250 μM EH-40, up to 24 hrs (FIG. 11B)
# Description: FIG. 11B: Effects of insulin D-xylose and xylose derivatives on PKB phosphorylation. L6 myotubes were maintained at 5.5 mM or 23.0 mM glucose. The latter were treated with 100 nM insulin, 20 mM xylose, 5 mM EH-114 or 250 μM EH-40 up to 24 hrs. At the indicated times treated myotubes were collected, homogenized and lysed and the soluble protein fraction was isolated. The control myotubes were collected at the end of the 24 hr incubation period. Equal amounts of proteins of the various treated myotubes were separated on SDS-PAGE and immunoblotted with a specific antibody against phospho-Axt1/PKBα (Ser473). In order to test whether xylose derivative activate insulin transduction elements downstream of PI3K, the inventors tested the state of PKB phosphorylation, as shown in FIG. 11B.
# GLUT-4 = assay: Cell surface biotinylation and western blot of GLUT-4 in L6 myotubes; assay type: cell-based, rat
# Description: as §2, §3
# Surface biotinylation of the cells was performed as previously described [Sasson et al (1997), Diabetologia, 40, 30-398].
# glucose transporter = assay: [3H]dGlc uptake with unlabeled carbohydrates (affinity for the glucose transporter) in C2 myotubes; assay type: cell-based, mouse; conditions: 0.1 mM dGlc, increasing unlabeled carbohydrate
# Description: FIG. 6: Lack of affinity of D-xylose for the glucose transporters. C2 myotubes preconditioned with 20 mM glucose were subjected to [^3H]dGlc uptake assay (0.1 mM dGlc) with increasing concentrations of unlabeled dGlc, glucose or xylose. The unlabeled carbohydrates were added to the [^3H]dGlc solution in the uptake assay.
# The inventors have also determined the affinity of D-xylose for the glucose transporter. C2 myotubes preconditioned with 20 mM glucose were subjected to [^3H]dGlc uptake assay (0.1 mM dGlc) in the presence of increasing concentrations of unlabeled dGlc, glucose or xylose. The results of these experiments are depicted in FIG. 6. The affinity of D-xylose for the glucose transporter is 2 orders of magnitude lower compared to glucose. The final concentration of dGlc in the assay was 0.1 mM.
EC50 [1] [µM],Molecule,HEXOSE UPTAKE (Percent of Control) Without Insulin (3T3-L1 adipocytes),HEXOSE UPTAKE (Percent of Control) With Insulin (3T3-L1 adipocytes),Fold Increase of Glucose Uptake [1] [fold],ECmax [1] [mM],also measured
,"COC1OC[C@@H](OC)[C@H](OC)[C@H]1OC (stereo partly drawn) [1,2,3,4-O-tetramethyl xylopyranoside]",95 ± 7% of Control,104 ± 8% of Control,,,
6000,COC1OC[C@@H](O)[C@H](O)[C@H]1O (stereo partly drawn) [1-O-methyl xylopyranoside],154 ± 4% of Control,156 ± 24% of Control,1.5,10,
,CO[C@H]1C(O)OC[C@@H](O)[C@@H]1O (stereo partly drawn) [2-O-methyl xylopyranose],63 ± 7% of Control,73 ± 15% of Control,,,
1300,CCO[C@@H]([C@H](O)CO)[C@@H](O)C=O [3-O-ethyl D-xylose],,,2.3,4,
2000,CO[C@H]1[C@H](O)COC(O)[C@@H]1O (stereo partly drawn) [3-O-methyl xylopyranose],201 ± 30% of Control,159 ± 7% of Control,2.0,4,
,CO[C@@H]1COC(O)[C@H](O)[C@H]1O (stereo partly drawn) [4-O-methyl xylopyranose],72 ± 112% of Control,111 ± 2% of Control,,,
,COC[C@H]1OC(O)[C@H](O)[C@H]1O (stereo partly drawn) [5-O-methyl xylofuranose],70 ± 5% of Control,53 ± 22% of Control,,,
,O=C[C@@H](O)[C@@H](O)[C@H](O)CO [D-lyxose],,,,,effect of pentoses on the rate of hexose transport (C2 myotubes): to a lesser extent
,O=C[C@H](O)[C@H](O)[C@H](O)CO [D-ribose],,,,,effect of pentoses on the rate of hexose transport (C2 myotubes): to a lesser extent
125,"COC(OC)[C@@H]1OC(c2ccccc2)O[C@@H]2COC(c3ccccc3)O[C@@H]21 (stereo partly drawn) [EH-3, 2,4:3,5-di-O-benzylidene-D-xylose-dimethylacetal]",,,1.7,0.3,
,"CCSC(SCC)[C@@H]1OC(c2ccccc2)O[C@H](CO)[C@@H]1O (stereo partly drawn) [EH-40, 2,4-benzylidene-D-xylose-diethyl-dithioacetal]",,,,,effect of PI3-kinase inhibitor LY-249002 on the substance's stimulation of hexose transport (L6 myotubes): abolished; PKB phosphorylation (PKB): time-dependent and sustained phosphorylation
2000,"COC1OC[C@@H](O)[C@H](OC)[C@H]1O (stereo partly drawn) [EH-101, 1,3-O-dimethyl xylopyranoside]",267 ± 57% of Control,174 ± 28% of Control,3.0,4,"total cell content of GLUT-4 (GLUT-4; L6 cells exposed to 23.0 mM glucose (FIG. 10)): increased the total content of the transporter; translocation of GLUT-4 to the plasma membrane (GLUT-4; L6 myotubes, xylose derivatives in the absence of insulin, insulin 500 nM (FIG. 10)): induced significant translocation of GLUT-4 to the plasma membrane; effect of PI3-kinase inhibitor LY-249002 on the substance's stimulation of hexose transport (L6 myotubes): failed to affect; increase of uptake rate together with insulin (L6 myotubes; L6 myotubes, compound during last 24 hr plus insulin): ~3 fold; duration of activity following removal from the culture media ([1]; after being washed from cell cultures): 24 h"
,"CCS[C@@H]1OC[C@@H](O)[C@H](O)[C@H]1O [EH-143, β-ethylthio-D-xylopyranoside]",,,,,hexose transport augmenting activity of thioalkyl derivatives [1]: hexose transport augmenting activity
,"CCSC(SCC)C1OC(c2ccccc2)OC(CO)C1OC [EH-169, 3-O-methyl-2,4-O-benzylidene-D-xylose-diethyl-dithioacetal]",,,,,increase of [3H]-2-deoxy-D-glucose uptake (L6 myotubes; 60 μM): 1.8 fold; increase of [3H]-2-deoxy-D-glucose uptake (L6 myotubes; 120 μM): 2 fold
,"O=CC[C@@H](O)[C@H](O)[C@H](O)CO [dGlc, 2-deoxy-D-glucose]",,,,,competition with [3H]dGlc (glucose transporter): competed markedly and similarly
300,di-4-(1-O-methyl-xylopyranoside)-phosphoryl-PEG-O-methyl [1-O-methyl D-xylose-PEG],,,1.9,0.6,
